Assay results reported in patent publication US5912230A, “Anti-fungal and anti-bacterial histatin-based peptides” (priority 1998, dated 1999).
Where no end group is shown, it is not given here.

Legend:
[1] = system: P. gingivalis hemagglutination of erythrocytes; assay: histatin peptide inhibition of hemagglutination assay; assay type: cell-based, Porphyromonas gingivalis; conditions: 2 hours at room temperature, visual examination
Experimental: The P. gingivalis strain of Section C.(1) was also used for the hemagglutination assays. The bacterial growth and culture conditions were also the same as those described in Section C.(1).
A classic assay was utilized to determine the hemagglutination potential of the P. gingivalis strain. Microorganisms were inoculated into BFB broth and cultured overnight, for approximately 24 hours at 37° C. under strictly anaerobic conditions with continuous agitation on a minishaker (IKA-Labortechnik, Staufen i. Br., Germany). The bacteria were harvested by centrifugatin at 3,000 r.p.m. for 20 min, at 4° C., washed twice in 0.01M phosphate buffered saline (PBS), pH 7.4, and suspended in the same buffer to an optical density of 1.0 at 550 nm. […] One ml of blood was drawn each time, washed twice in PBS at 1,000 r.p.m. for 10 min at 4° C. and suspended in the same buffer at a 2% (v/v) final concentration. Fifty μl of the bacterial suspension were serially diluted in PBS (two-fold steps) in a 96-well U-bottom microplate (Costar, Cambridge, Mass.). Fifty μl of the erythrocyte suspension were added to each well. Controls without bacteria or erythrocytes were included. The microplate was slightly shaken and incubated at room temperature for 2 hours. Visible examination on a white background was used to determine hemagglutination. The amount of hemagglutination was rated as none,(-), moderate (+/-), or strong (+). Erythrocytes in control wells with PBS precipitated to the center of the well, whereas erythrocyte-bacteria aggregates precipitated at the periphery of the bottom. The hemagglutination titer was expressed as the reciprocal of the highest dilution of the bacterial suspension providing visible hemagglutination.
Preparation of erythrocyte and bacterial suspensions were the same as for the hemagglutination assay. Fifty μl of histatin peptide solutions were diluted in PBS in a U-bottom microplate, at various two-fold concentrations with 600 nmole/ml being the highest. The bacterial concentration utilized was normally twice the minimal concentration which gave strong hemagglutination. Equal volumes of the bacterial suspension were poured into the wells containing the histatin peptides. Finally, 50 μl of erythrocyte suspension were added in each well. The microplate was slightly shaken and incubated at room temperature for 2 hours. Controls were made by replacement of the peptide dilutions with PBS only. The experiments were conducted at least twice. The lowest histatin peptide concentration without hemagglutination (complete inhibition) was determined upon visual examination. The highest final histatin peptide concentration utilized was 100 nmole/ml.

[2] = system: C. albicans blastoconidia; conditions: blastoconidia, 1 h at 37° C., pH 7.4
Source text: C. albicans is a dimorphic yeast. It can exist in a yeast or blastoconidial form, which upon germination develops into the hyphal or germinated form. While the germinated form is considered to be more invasive, most of the C. albicans isolates harvested from the oral cavities of healthy individuals appear to be in the blastoconidial form. (Arendorf, T. M. et al. (1980), Arch. Oral Biol. 25:1-10; Gow, N.A.R. et al. (1987), Criti. Rev. Microbiol. 15:73-78; Odds, F. C. (1988), Candida and Candidosis, 2nd ed., Bailliere Tindall, London, England). Anti-fungal activity of synthetic histatin 5, histatin-based peptide 113, peptides based on portions of the amino acid sequences of histatin-based peptide 113 and peptides derived from histatin-based peptide 113 with specified amino acid substitutions was measured in assays designed to test the effectiveness of the peptides against the blastoconidia form of Candida (Table 1). These assays, which measure killing of blastoconidia of C. albicans, are described in Xu et al., which is herein incorporated by reference. (Xu, T. et al. (1991), Infect. Immun. 59(8):2549-2554).
A well-described strain of C. albicans was used in the bioassay. This strain, ATCC 44505, was originally isolated from the human oral cavity. Cultures were stored at 4° C. on Sabouraud dextrose agar plates (Difco Laboratories, Detroit, Mich.) until use. Stationary phase growth cells were obtained following growth at 30° C. for 18 h on Sabouraud dextrose agar plates. Colonies were harvested and suspended in 10 mM potassium phosphate buffer (PPB), pH 7.4.
To initiate log phase growth, an aliquot of stock C. albicans was suspended in Sabouraud dextrose broth (Difco) and incubated at 30° C. in a shaking water bath. The growth phase was determined by taking aliquots of the culture at one hour intervals to monitor the optical density (O.D.) at 560 nm. […] Log phase cells were harvested and utilized in the blastoconidia killing assay in a manner identical to that described for stationary phase cells. A final concentration of 10^5 cells/ml (either stationary or log phase fungus) was used in all assays.
The standard suspension buffer utilized in the blastospore killing assay was 0.01M PPB, pH 7.4. An alternate suspension buffer, N-2-hydroxyethylpiperazine-N'-2-ethanesulfonic acids (HEPES; Sigma Chemical Co., St. Louis, Mo.), pH 7.4, can also be utilized.
a. For the killing of blastoconidia assay, 50 μl aliquots of cells (2×10^5 cells/ml) diluted in suspension buffer were allowed to attach to a polystyrene 96-well micro-titer plate (COSTAR, Cambridge, Mass.) for 15 min at room temperature, and then incubated with an equal volume of a histatin or histatin peptide in suspension buffer for 1 h at 37° C. Controls were carried out in the absence of the histatin or histatin peptide. After incubation, wells were washed three times by centrifugation at 1,000 xg for 5 min and covered with aliquots of molten Sabouraud dextrose broth (Difco) containing 2% agarose (Sigma) at 45° C. The plate was then incubated at 30° C. for 8 h. Under such conditions, live cells will divide and begin to form colonies, while dead cells will remain as single cells. To determine the percentage of blastoconidia killed, a total of 100 single cells and/or colonies were counted under a Nikon inverted microscope at 400× magnification and the extent of killing was calculated using the formula: [1-(number of colonies in treated sample)/(number of colonies in control)]×100%.
Data were obtained by calculating the mean and standard deviation from triplicate assays.

[3] = system: Porphyromonas gingivalis strain A7A1-28; assay: microdilution bacteriostatic assay (P. gingivalis growth inhibition); assay type: cell-based
Experimental: (a) The bacteria used in one investigation, Porphyromonas gingivalis strain A7A1-28, is a typical key pathogenic organism associated with destructive periodontal diseases. The bacteria were multiply subcultured in Enriched Todd Hewitt broth (ETHB, Difco Lab., Detroit, Mich.). Microorganisms were stored in the same broths containing 20% and 50% glycerol, at -20° C. and -70° C., respectively. These served as stock cultures from which all preparations originated.
Working stock cultures were maintained by weekly transfer to Brain Heart Infusion Anaerobic Sheep Blood Agar plates (BHIA, Becton Dickinson and Co., Cockeysville, Md.), and Trypticase Soy Anaerobic Sheep Blood Agar plates (TSA, Becton Dickinson and Co., Cockeysville, Md.). Plates were incubated for 3 to 4 days under strictly anaerobic conditions. For the bacteriostatic assay, bacteria were collected from plates, inoculated into the aforementioned broth and grown at 37° C., under strictly anaerobic conditions for 24 to 48 hours.
A modification of the typical microdilution assay (Rotilie et al., 1975) for the determination of minimal inhibitory concentration (MIC) of antimicrobial agents was utilized to investigate the bacteriostatic activity of the peptides. A standardized bacterial inoculum (P. gingivalis) was exposed to serially diluted antimicrobial peptides in an enriched broth medium that was suitable for the growth of anaerobic bacteria. The test was adapted for use in the 96-well microtiter plates. […] The modification introduced here was based on the spectrophotometric reading of the microtiter plate after incubation.
Microorganisms from cultures maintained in the aforementioned plates were inoculated into 5 ml of the above-mentioned broths and cultured overnight at 37° C. under strictly anaerobic conditions with continuous agitation on a minishaker (IKA-Labortechnik, Staufen i. Br., Germany). The bacteria were grown until reaching the late log phase and were then suspended in the same broths to an optical density (O.D.) of 0.1 at 560 nm. The peptides were diluted in 0.01M phosphate buffered saline (PBS), pH 7. Forty μl aliquots of peptide dilutions were added in each well of a U-bottom microtiter plate (Costar, Cambridge, Mass.) to give final concentrations of 2000, 1000, 500 and 250 μM. Twenty μl of bacterial inoculum was added to all the wells. Finally, 100 μl of the suitable broth were added to each well. The optical density of the wells of the microtiter plate was determined using a microplate reader set at 550 nm and the plate was then incubated under strictly anaerobic conditions for 24 hours. Controls were made by replacing the peptide dilutions with PBS alone. After the incubation, the mixtures in each well were mixed manually to resuspend sedimented bacteria and the plate was read again. The experiments were conducted twice every time. The biologic activity was calculated according to the formula:
100-[[(Fin ODexp-In ODexp)/(Fin ODctr-In ODctr)]×100]
In addition, the % increase in time to reach midlog phase growth was calculated.
The data presentation represent the means (±SEM) of at least 2 separate experiments.

Clostripain = biological target: T1, Clostripain (Hathewaya histolytica, UniProt P09870); assay: clostripain assay (BAPNA hydrolysis); assay type: biochemical, Clostridium histolyticum; conditions: read-out: Clostripain: IC50 (μM) for inhibition of Clostripain
T1 construct: purchased Sigma Chemical Corp., St. Louis, Mo
T1 sequence (P09870 191-526): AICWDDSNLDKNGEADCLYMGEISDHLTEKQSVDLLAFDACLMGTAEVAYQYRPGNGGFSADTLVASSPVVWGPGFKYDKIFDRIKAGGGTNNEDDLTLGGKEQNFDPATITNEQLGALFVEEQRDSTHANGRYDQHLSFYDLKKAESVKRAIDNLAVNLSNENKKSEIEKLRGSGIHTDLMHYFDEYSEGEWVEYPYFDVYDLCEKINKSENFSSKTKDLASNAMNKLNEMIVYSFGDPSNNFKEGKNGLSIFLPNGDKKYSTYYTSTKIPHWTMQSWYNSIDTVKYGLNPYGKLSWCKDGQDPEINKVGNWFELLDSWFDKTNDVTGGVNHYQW
T1 sequence (P09870 51-181): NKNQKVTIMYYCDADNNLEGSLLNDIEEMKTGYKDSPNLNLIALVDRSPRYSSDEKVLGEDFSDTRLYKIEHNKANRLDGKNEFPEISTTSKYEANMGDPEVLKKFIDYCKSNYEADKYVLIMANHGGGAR
Experimental: Clostripain from Clostridium histolyticum (Sigma Chemical Corp., St. Louis, Mo.) was dissolved in deionized water to a concentration of 1 mg/mL (300 units/mg) and activated with the addition of 10 mmol/L DTT. To measure its hydrolytic activity, clostripain (6 units) was added to […] Hepes buffer, pH 7.5, containing 80 gmol/L BAPNA (benzoyl-arginine-p-nitroanilide), together with 5.6 μmol/L of histatin peptide inhibitor. As controls, assays were performed in the absence of any histatin peptide inhibitor. The activity was monitored continuously at 405 nm using a Molecular Devices VMax microtitre plate reader. The activities were determined from the maximum rates of substrate hydrolysis. Assays were done in duplicate, and the means normalized to the controls.

| Compound | Hemagglutination: lowest dose (μM) at which hemagglutination was observed using P. Gingivalis [1] [µM] | C. albicans: LD50 (μM) for % killing [2] [µM] | P. gingivalis: % inhibition at 500 μM dose (scoring) ([3]; 500 μM dose, highest response seen used in the scoring) | IC50 (Clostripain) [µM] | P. gingivalis: % increase in time to reach mid logphase growth (0.2 OD) ([3]; 2 mM dose) [%] |
| --- | --- | --- | --- | --- | --- |
| KRHHGYKRKFHEKHH [peptide 105] | 6.25 | 5.0 | +++ (+++50-80%) | – | – |
| C[C@H](NC(=O)[C@H](Cc1c[nH]cn1)NC(=O)[C@H](CO)NC(=O)[C@@H](N)CC(=O)O)C(=O)N[C@@H](CCCCN)C(=O)N[C@@H](CCCNC(=N)N)C(=O)N[C@@H](Cc1c[nH]cn1)C(=O)N[C@@H](Cc1c[nH]cn1)C(=O)NCC(=O)N[C@@H](Cc1ccc(O)cc1)C(=O)N[C@@H](CCCCN)C(=O)N[C@@H](CCCNC(=N)N)C(=O)N[C@@H](CCCCN)C(=O)N[C@@H](Cc1ccccc1)C(=O)N[C@@H](Cc1c[nH]cn1)C(=O)N[C@@H](CCC(=O)O)C(=O)N[C@@H](CCCCN)C(=O)N[C@@H](Cc1c[nH]cn1)C(=O)N[C@@H](Cc1c[nH]cn1)C(=O)N[C@@H](CO)C(=O)N[C@@H](Cc1c[nH]cn1)C(=O)N[C@@H](CCCNC(=N)N)C(=O)NCC(=O)N[C@@H](Cc1ccc(O)cc1)C(=O)O [SynHis5, reference compound] | – | 3.0 | – | < 6.2 | – |
| KRHHGYKRKFHEKHHSHRGYR [peptide 101] | 1.56 | 3.5 | – | – | – |
| KRHHGYKRKFHEKHHSHR [peptide 103] | 1.56 | 4.5 | – | – | 56.6 |
